Laboratory results as given in ChEMBL document CHEMBL5214910, “Rational Design of Dipicolylamine-Containing Carbazole Amphiphiles Combined with Zn2+ as Potent Broad-Spectrum Antibacterial Agents with a Membrane-Disruptive Mechanism” (J Med Chem, 2021).
≈ marks a conversion by molar mass, not a printed value.

How the values were obtained:
Pseudomonas aeruginosa [1] = test: Antibacterial activity Pseudomonas aeruginosa ATCC 9027 assessed as inhibition of bacterial growth incubated for 24 hrs in the presence of 6.25 ug/mL Zn2+ by Muller hinton broth based dilution assay; type: functional
Pseudomonas aeruginosa [2] = test: Antibacterial activity Pseudomonas aeruginosa ATCC 9027 assessed as inhibition of bacterial growth incubated for 24 hrs by Muller hinton broth based dilution assay; type: functional
Acinetobacter baumannii [3] = test: Antibacterial activity against Acinetobacter baumannii ATCC 17978 assessed as inhIbition of bacterial growth incubated for 24 hrs in the presence of 12.5 ug/mL Zn2+ by Muller hinton broth based dilution assay; type: functional
Staphylococcus aureus [4] = test: Antibacterial activity against Methicillin-resistant Staphylococcus aureus NCTC10442 assessed as inhibition of bacterial growth incubated for 24 hrs in the presence of 50 ug/mL Zn2+ by Muller hinton broth based dilution assay; type: functional
Staphylococcus aureus [5] = test: Antibacterial activity against Staphylococcus aureus ATCC 29213 assessed as inhibition of bacterial growth incubated for 24 hrs in the presence of […] ug/mL Zn2+ by Muller hinton broth based dilution assay; type: functional
[6] = Ratio of MIC for antibacterial activity against Acinetobacter baumannii R2889 to MIC for antibacterial activity against Acinetobacter baumannii R2889 in the presence of Zn2+; type: functional
Escherichia coli [7] = test: Antibacterial activity Escherichia coli ATCC 25922 assessed as inhibition of bacterial growth incubated for 24 hrs in the presence of 50 ug/mL Zn2+ by Muller hinton broth based dilution assay; type: functional
Staphylococcus aureus [8] = test: Antibacterial activity against Staphylococcus aureus ATCC 29213 assessed as inhibition of bacterial growth by measuring salt resistance incubated for 24 hrs in the presence of 12.5 ug/ml Zn2+ and 3220 ug/ml Na+ by Muller hinton broth based dilution assay; type: functional
Lipopolysaccharide (LPS) [9] = test: Displacement of BODIPY-TR-cadaverin from Pseudomonas aeruginosa Lipopolysaccharide at 2 times of MIC incubated for 30 mins in the presence of 12.5 ug/ml Zn2+ by fluorescence based microplate reader analysis relative to control
Staphylococcus aureus [10] = test: Antibacterial activity against Staphylococcus aureus ATCC 29213 assessed as inhibition of bacterial growth incubated for 24 hrs in the presence of 25 ug/mL Zn2+ by Muller hinton broth based dilution assay; type: functional
Staphylococcus aureus [11] = test: Antibacterial activity against Methicillin-resistant Staphylococcus aureus NCTC10442 assessed as inhibition of bacterial growth incubated for 24 hrs in the presence of 25 ug/mL Zn2+ by Muller hinton broth based dilution assay; type: functional
Lipopolysaccharide (LPS) [12] = test: Displacement of BODIPY-TR-cadaverin from Pseudomonas aeruginosa Lipopolysaccharide at 8 times of MIC incubated for 30 mins in the presence of 12.5 ug/ml Zn2+ by fluorescence based microplate reader analysis relative to control
[13] = Hemolytic activity in rabbit RBC incubated for 1 hrs by fluorescence based microplate reader assay; type: toxicity, cell-based, Oryctolagus cuniculus, Erythrocyte; conditions: rabbit red blood cells (erythrocytes)
Escherichia coli [14] = test: Antibacterial activity Escherichia coli ATCC 25922 assessed as inhibition of bacterial growth incubated for 24 hrs in the presence of 25 ug/mL Zn2+ by Muller hinton broth based dilution assay; type: functional
Staphylococcus aureus [15] = test: Antibacterial activity against Methicillin-resistant Staphylococcus aureus NCTC10442 assessed as inhibition of bacterial growth by measuring salt resistance incubated for 24 hrs in the presence of 12.5 ug/ml Zn2+ and 175.5 ug/ml K+ by Muller hinton broth based dilution assay; type: functional
Cell membrane = test: Induction of outer membrane permeabilization in Escherichia coli ATCC 25922 assessed as increase in fluorescence intensity at 2 times to 8 times MIC measured for 1 hrs in the presence of 12.5 ug/ml Zn2+ by NPN uptake assay; conditions: DDE = dose-dependent effect
Escherichia coli [16] = test: Antibacterial activity against Escherichia coli ATCC 25922 assessed as log reduction in bacterial count at 4 times of MIC incubated for 1 hrs in the presence of 12.5 ug/ml Zn2+ by Muller hinton agar based time kill assay; type: functional
Escherichia coli [17] = test: Antibacterial activity Escherichia coli ATCC 25922 assessed as inhibition of bacterial growth incubated for 24 hrs in the presence of […] ug/mL Zn2+ by Muller hinton broth based dilution assay; type: functional
Pseudomonas aeruginosa [18] = test: Antibacterial activity Pseudomonas aeruginosa ATCC 9027 assessed as inhibition of bacterial growth incubated for 24 hrs in the presence of 0.39 ug/mL Zn2+ by Muller hinton broth based dilution assay; type: functional
Acinetobacter baumannii [19] = test: Antibacterial activity against Acinetobacter baumannii R2889 assessed as inhIbition of bacterial growth incubated for 24 hrs by Muller hinton broth based dilution assay; type: functional
Staphylococcus aureus [20] = test: Antibacterial activity against Methicillin-resistant Staphylococcus aureus NCTC10442 assessed as inhibition of bacterial growth incubated for 24 hrs in the presence of 0.39 ug/mL Zn2+ by Muller hinton broth based dilution assay; type: functional
Staphylococcus aureus [21] = test: Antibacterial activity against Methicillin-resistant Staphylococcus aureus N315 assessed as inhibition of bacterial growth incubated for 24 hrs by Muller hinton broth based dilution assay; type: functional
Lipopolysaccharide (LPS) [22] = test: Displacement of BODIPY-TR-cadaverin from Pseudomonas aeruginosa Lipopolysaccharide at 4 times of MIC incubated for 30 mins by fluorescence based microplate reader analysis relative to control
Lipopolysaccharide (LPS) [23] = test: Displacement of BODIPY-TR-cadaverin from Pseudomonas aeruginosa Lipopolysaccharide at 8 times of MIC incubated for 30 mins by fluorescence based microplate reader analysis relative to control
Acinetobacter baumannii [24] = test: Antibacterial activity against Acinetobacter baumannii ATCC 17978 assessed as inhIbition of bacterial growth incubated for 24 hrs by Muller hinton broth based dilution assay; type: functional
Acinetobacter baumannii [25] = test: Antibacterial activity against Acinetobacter baumannii ATCC 17978 assessed as inhibition of bacterial growth by measuring salt resistance incubated for 24 hrs in the presence of 12.5 ug/ml Zn2+ and 3220 ug/ml Na+ by Muller hinton broth based dilution assay; type: functional
Pseudomonas aeruginosa [26] = test: Antibacterial activity Pseudomonas aeruginosa ATCC 9027 assessed as inhibition of bacterial growth incubated for 24 hrs in the presence of […] ug/mL Zn2+ by Muller hinton broth based dilution assay; type: functional
Escherichia coli [27] = test: Antibacterial activity against Escherichia coli ATCC 25922 assessed as inhibition of bacterial growth by measuring salt resistance incubated for 24 hrs in the presence of 12.5 ug/ml Zn2+ and 100 ug/ml Ca2+ by Muller hinton broth based dilution assay; type: functional
Acinetobacter baumannii [28] = test: Antibacterial activity against Acinetobacter baumannii ATCC 17978 assessed as inhibition of bacterial growth by measuring salt resistance incubated for 24 hrs in the presence of 12.5 ug/ml Zn2+ and 100 ug/ml […] by Muller hinton broth based dilution assay; type: functional
Escherichia coli [29] = test: Antibacterial activity Escherichia coli ATCC 25922 assessed as inhibition of bacterial growth incubated for 24 hrs in the presence of 0.39 ug/mL Zn2+ by Muller hinton broth based dilution assay; type: functional
Lipopolysaccharide (LPS) [30] = test: Displacement of BODIPY-TR-cadaverin from Pseudomonas aeruginosa Lipopolysaccharide at 2 times of MIC incubated for 30 mins by fluorescence based microplate reader analysis relative to control
[31] = Cytotoxicity against mouse NCTC clone 929 cells assessed as reduction in cell survival at 16 times to 32 times of MIC incubated for 24 hrs in the presence of 12.5 ug/ml of Zn2+ by CCK8 assay relative to control; type: toxicity, cell-based; conditions: nctc clone 929, 24 h

SMILES: CC(C)=CCn1c2ccccc2c2c(OCC(O)CN(Cc3ccccn3)Cc3ccccn3)cccc21 (configuration not stated)
- MIC (Pseudomonas aeruginosa [1]): 3.12 µg/mL
- MIC (Pseudomonas aeruginosa [2]): > 50 µg/mL
- MIC (Acinetobacter baumannii [3]): 0.78 µg/mL
- MIC (Staphylococcus aureus [4]): 0.78 µg/mL
- MIC (Staphylococcus aureus [5]): 3.12 µg/mL
- Ratio [6]: 2
- MIC (Escherichia coli [7]): 1.56 µg/mL
- MIC (Staphylococcus aureus [8]): 1.56 µg/mL
- Activity (Lipopolysaccharide (LPS) [9]): 39.1%
- MIC (Staphylococcus aureus [10]): 1.56 µg/mL
- MIC (Staphylococcus aureus [11]): 0.78 µg/mL
- Activity (Lipopolysaccharide (LPS) [12]): 83.4%
- HC50 at 1 h [13]: > 200 µg/mL
- MIC (Escherichia coli [14]): 1.56 µg/mL
- MIC (Staphylococcus aureus [15]): 1.56 µg/mL
- Activity (Cell membrane): Dde
- log(activity) (Escherichia coli [16]): 2.91
- MIC (Escherichia coli [17]): 6.25 µg/mL
- MIC (Pseudomonas aeruginosa [18]): > 50 µg/mL
- MIC (Acinetobacter baumannii [19]): 3.12 µg/mL (≈ 6.17 µM)
- MIC (Staphylococcus aureus [20]): 1.56 µg/mL
- MIC (Staphylococcus aureus [21]): 1.56 µg/mL (≈ 3.08 µM)
- Activity (Lipopolysaccharide (LPS) [22]): -0.56%
- Activity (Lipopolysaccharide (LPS) [23]): 1.32%
- MIC (Acinetobacter baumannii [24]): 3.12 µg/mL (≈ 6.17 µM)
- MIC (Acinetobacter baumannii [25]): 0.78 µg/mL
- MIC (Pseudomonas aeruginosa [26]): 50 µg/mL
- MIC (Escherichia coli [27]): 6.25 µg/mL
- MIC (Acinetobacter baumannii [28]): 3.12 µg/mL
- MIC (Escherichia coli [29]): 6.25 µg/mL
- Activity (Lipopolysaccharide (LPS) [30]): 0.19%
- Activity [31]: 71.58%
